From patent publication US12344610B2, “APOL1 inhibitors and methods of use” (Maze Therapeutics, Inc., priority 2022, dated 2025)

Columns and labels:
[1] = system: HEK293 cells overexpressing APOL1 G2; assay: APOL1 G2 HEK293 cell rescue assay (reversal of cell death caused by overexpression of APOL1); type: cell-based; details: geometric mean of at least 2 assay runs, † = single assay run
Procedure, shortened: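 Each compound tested in duplicate wells on one plate per run, with values usually the geometric mean across at least two runs on different days, occasionally from one run only. Read-out: concentration giving half-maximal rescue of APOL1 G2 overexpression-induced death of HEK293 cells.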

APOL1 G2 = target: T1, APOL1 G2 (Homo sapiens, UniProt O14791, DEL388-389); assay: APOL1-mediated calcium transport (calcium influx) assay, HEK T-REx/GCaMP6f/APOL1 G2 K6.3 cells, FLIPR TETRA; type: cell-based; details: prevention of calcium influx; geometric mean of at least 2 assay runs; † = average of a technical replicate from a single assay run
T1 construct: expressed in transfected cells; host or cells: HEK293 T-REx clonal line stably expressing GCaMP6f (HEK T-REx/GCaMP6f/APOL1 G2 K6.3), doxycycline induced
T1 sequence (O14791 with tags, fused parts or gaps DEL388-389): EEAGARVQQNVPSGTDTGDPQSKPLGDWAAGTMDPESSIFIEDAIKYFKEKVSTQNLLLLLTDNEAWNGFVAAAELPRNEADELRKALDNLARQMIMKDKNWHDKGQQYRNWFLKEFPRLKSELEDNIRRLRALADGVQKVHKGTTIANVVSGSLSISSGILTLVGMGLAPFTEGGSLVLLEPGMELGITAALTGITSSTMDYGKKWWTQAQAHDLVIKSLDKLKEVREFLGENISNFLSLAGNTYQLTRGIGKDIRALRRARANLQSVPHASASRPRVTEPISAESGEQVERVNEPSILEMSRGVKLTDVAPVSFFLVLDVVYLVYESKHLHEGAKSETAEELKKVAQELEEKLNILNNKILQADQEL
Procedure, shortened: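 A HEK293 T-REx clone stably expressing GCaMP6f had APOL1 G2 induced with doxycycline (20 ng/mL solution added) for 6 h. Cells were then washed into Ca2+-free Tyrode's buffer (pH 7.4) and preincubated with compounds (duplicate 8-point) for 10 min at room temperature. Ca2+ injection to 5 mM final produced FLIPR GCaMP fluorescence, giving AC50 for influx inhibition (geometric mean, ≥2 runs).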

[2] = Homo sapiens, HEK293, HEK293 overexpressing APOL1 G2

SMILES	EC50 ([1]; HEK293 overexpressing APOL1 G2)	AC50 (APOL1 G2)	EC50 [1, 2]
CC(COc1ccc2c(c1)CCC(=O)N2C)N1CCC2(CC1)C(=O)Nc1ccc(Cl)cc12 (single isomer, unassigned) [Compound 200]	87.2 nM	1200 nM	–
CC(COc1ccc2c(c1)CCC(=O)N2C)N1CCC2(CC1)C(=O)Nc1ccc(C#N)cc12 (single isomer, unassigned) [Compound 203, (S) or (R)-1′-{1-[(1-methyl-2-oxo-1,2,3,4-tetrahydroquinolin-6-yl)oxy]propan-2-yl}-2-oxo-1,2-dihydrospiro[indole-3,4′-piperidine]-5-carbonitrile]	187 nM	1190 nM	–
C[C@@H](COc1ccc(S(C)(=O)=O)c(C(F)F)c1)N1CCC2(CC1)C(=O)Nc1ccc(Cl)cc12 (single isomer, unassigned) [Compound 210]	–	1540 nM	63.3 nM
C[C@@H](COc1ccc2c(cnn2C)c1)N1CCC2(CC1)C(=O)Nc1ccc(Cl)cc12 (single isomer, unassigned) [Compound 211]	–	1290 nM	138 nM
C[C@@H](COc1ccc(S(C)(=O)=O)c(C(F)F)c1)N1CCC2(CC1)C(=O)Nc1ccc(C#N)cc12 (single isomer, unassigned) [Compound 212]	–	1360 nM	81.4 nM
CS(=O)(=O)c1ccc(OCCN2CCC3(CC2)C(=O)Nc2ccc(Cl)cc23)cc1C(F)CF (single isomer, unassigned) [Compound 218, 5-chloro-1′-(2-{3-[(1S or 1R)-1,2-difluoroethyl]-4-methanesulfonylphenoxy}ethyl)-1,2-dihydrospiro[indole-3,4′-piperidin]-2-one]	–	690 nM	25.6 nM
CS(=O)(=O)c1ccc(OCCN2CCC3(CC2)C(=O)Nc2ccc(Cl)cc23)cc1C(F)CF (single isomer, unassigned) [Compound 219, 5-chloro-1′-(2-{3-[(1R or 1S)-1,2-difluoroethyl]-4-methanesulfonylphenoxy}ethyl)-1,2-dihydrospiro[indole-3,4′-piperidin]-2-one]	26.3 nM	835 nM	–
CS(=O)(=O)c1ccc(OCCN2CCC3(CC2)C(=O)Nc2ccc(C#N)cc23)cc1C(F)CF (single isomer, unassigned) [Compound 221, 1′-(2-{3-[(1S or 1R)-1,2-difluoroethyl]-4-methanesulfonyl-phenoxy}ethyl)-2-oxo-1,2-dihydrospiro [indole-3,4′-piperidine]-5-carbonitrile]	47.4 nM	598 nM	–
CC(COc1ccc(C2(S(C)(=O)=O)COC2)cc1)N1CCC2(CC1)C(=O)Nc1ccc(C#N)cc12 (single isomer, unassigned) [Compound 263, (S) or (R)-1′-{1-[4-(3-methanesulfonyloxetan-3-yl)phenoxy]propan-2-yl}-2-oxo-1,2-dihydrospiro[indole-3,4′-piperidine]-5-carbonitrile]	198 nM	2540 nM	–
CN1C(=O)C2(CCN(CCOc3ccc(C4(S(C)(=O)=O)CC(O)C4)cc3)CC2)c2cc(C(F)F)ccc21 (single isomer, unassigned) [Compound 278, 5-(difluoromethyl)-1-methyl-1′-(2-{4-[(cis) or (trans)-3-hydroxy-1-methanesulfonylcyclobutyl]phenoxy}ethyl)-1,2-dihydrospiro[indole-3,4′-piperidin]-2-one]	23 nM	769 nM	–
CS(=O)(=O)C1(c2ccc(OCCN3CCC4(CC3)C(=O)Nc3ccc(C(F)F)cc34)cc2)CC(O)C1 (single isomer, unassigned) [Compound 281, 5-(difluoromethyl)-1′-(2-{4-[(cis) or (trans)-3-hydroxy-1-methanesulfonylcyclobutyl]phenoxy}ethyl)-1,2-dihydrospiro[indole-3,4′-piperidin]-2-one]	56 nM	1310 nM	–
CC(O)c1ncc(OCCN2CCC3(CC2)C(=O)Nc2ccc(Cl)cc23)cn1 (single isomer, unassigned) [Compound 285, 5-chloro-1′-[2-({2-[(1S) or (1R)-1-hydroxyethyl]pyrimidin-5-yl}oxy)ethyl]-1,2-dihydrospiro[indole-3,4′-piperidin]-2-one]	–	714 nM	200 nM
CC(O)c1ncc(OCCN2CCC3(CC2)C(=O)Nc2ccc(Cl)cc23)cn1 (single isomer, unassigned) [Compound 286, 5-chloro-1′-[2-({2-[(1R) or (1S)-1-hydroxyethyl]pyrimidin-5-yl}oxy)ethyl]-1,2-dihydrospiro[indole-3,4′-piperidin]-2-one]	181 nM	917 nM	–
CC(O)c1ncc(OCCN2CCC3(CC2)C(=O)Nc2ccc(C(F)F)cc23)cc1C(F)(F)F (single isomer, unassigned) [Compound 287, 5-(difluoromethyl)-1′-[2-({6-[(1S) or (1R)-1-hydroxyethyl]-5-(trifluoromethyl)pyridin-3-yl}oxy)ethyl]-1,2-dihydrospiro[indole-3,4′-piperidin]-2-one]	–	303 nM	33.5 nM
CC(O)c1ncc(OCCN2CCC3(CC2)C(=O)Nc2ccc(C(F)F)cc23)cc1C(F)(F)F (single isomer, unassigned) [Compound 288, 5-(difluoromethyl)-1′-[2-({6-[(1R) or (1S)-1-hydroxyethyl]-5-(trifluoromethyl)pyridin-3-yl}oxy)ethyl]-1,2-dihydrospiro[indole-3,4′-piperidin]-2-one]	34.1 nM	369 nM	–
CC[C@]1(O)C[C@H](N2C(=O)CCc3cc(OCCN4CCC5(CC4)C(=O)Nc4ccc(Cl)cc45)cnc32)C1 (single isomer, unassigned) [Compound 290, 5-chloro-1′-[2-({7-oxo-8-[(trans)-3-ethyl-3-hydroxycyclobutyl]-5,6,7,8-tetrahydro-1,8-naphthyridin-3-yl}oxy)ethyl]-1,2-dihydrospiro[indole-3,4′-piperidin]-2-one]	–	253 nM	18.2 nM
CC(O)c1ncc(OCCN2CCC3(CC2)C(=O)Nc2ccc(Cl)cc23)cc1C(F)(F)F (single isomer, unassigned) [Compound 291, 5-chloro-1′-[2-({6-[(1R) or (1S)-1-hydroxyethyl]-5-(trifluoromethyl)pyridin-3-yl}oxy)ethyl]-1,2-dihydrospiro[indole-3,4′-piperidin]-2-one]	–	1190 nM	26.4 nM
CC(O)c1ncc(OCCN2CCC3(CC2)C(=O)Nc2ccc(Cl)cc23)cc1C(F)(F)F (single isomer, unassigned) [Compound 292, 5-chloro-1′-[2-({6-[(1S) or (1R)-1-hydroxyethyl]-5-(trifluoromethyl)pyridin-3-yl}oxy)ethyl]-1,2-dihydrospiro[indole-3,4′-piperidin]-2-one]	23.2 nM	1300 nM	–
O=C1CCc2cc(OCCN3CCC4(CC3)C(=O)Nc3ccc(Cl)cc34)cnc2N1[C@H]1C[C@@](O)(C2CC2)C1 (single isomer, unassigned) [Compound 297, 5-chloro-1′-[2-({7-oxo-8-[(trans)-3-cyclopropyl-3-hydroxycyclobutyl]-5,6,7,8-tetrahydro-1,8-naphthyridin-3-yl}oxy)ethyl]-1,2-dihydrospiro[indole-3,4′-piperidin]-2-one]	–	937 nM	31.8 nM
C[C@]1(O)C[C@H](N2C(=O)CCc3cc(OCCN4CCC5(CC4)C(=O)Nc4ccc(Cl)cc45)cnc32)C1 (single isomer, unassigned) [Compound 307, 5-chloro-1′-[2-({7-oxo-8-[(trans)-3-hydroxy-3-methylcyclobutyl]-5,6,7,8-tetrahydro-1,8-naphthyridin-3-yl}oxy)ethyl]-1,2-dihydrospiro[indole-3,4′-piperidin]-2-one]	–	320 nM	20.4 nM
CS(=O)(=O)c1ccc(OCCN2CCC3(CC2)C(=O)N(CCO)c2ccc(Cl)cc23)cc1 [Compound 18, 5-chloro-1-(2-hydroxyethyl)-1′-[2-(4-methanesulfonylphenoxy)ethyl]-1,2-dihydrospiro[indole-3,4′-piperidin]-2-one]	–	240 nM	225 nM
COCCN1C(=O)C2(CCN(CCOc3ccc(S(C)(=O)=O)cc3)CC2)c2cc(Cl)ccc21 [Compound 20, 5-chloro-1′-[2-(4-methanesulfonylphenoxy)ethyl]-1-(2-methoxyethyl)-1,2-dihydrospiro[indole-3,4′-piperidin]-2-one]	–	348 nM	294 nM
CN1C(=O)C2(CCN(CCOc3ccc(S(=O)(=O)CCCS(C)(=O)=O)cc3)CC2)c2cc(Cl)ccc21 [Compound 23, 5-chloro-1′-{2-[4-(3-methanesulfonylpropanesulfonyl)phenoxy]ethyl}-1-methyl-1,2-dihydrospiro[indole-3,4′-piperidin]-2-one]	–	514 nM	135 nM
